# What was measured:
# Assay type in all cases: in vivo
# [1] = test system: barnyardgrass (Echinochloa crusgalli); experiment: Test B flooded paddy test, visual plant response rating 0-100; conditions: 250 g ai/ha, Flood, applied to paddy water, evaluated after 13 days
# Method in brief: (§1)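 Paddy-water application: test compounds went directly into water flooded 3 cm above the soil surface, with plants at 2 leaves. After a 13-day greenhouse period, responses were judged by eye relative to controls; a dash marks an untested entry.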
# [2] = test system: ducksalad (Heteranthera limosa); experiment: as above; conditions: 250 g ai/ha, Flood, applied to paddy water, evaluated after 13 days
# Method in brief: as §1
# [3] = test system: sedge, umbrella (small-flower umbrella sedge, Cyperus difformis); experiment: as above; conditions: 250 g ai/ha, Flood, applied to paddy water, evaluated after 13 days
# Method in brief: as §1
# [4] = test system: rice (Oryza sativa); experiment: as above; conditions: 250 g ai/ha, Flood, applied to paddy water, evaluated after 13 days
# Method in brief: as §1
# [5] = test system: ryegrass, Italian (italian ryegrass, Lolium multiflorum); experiment: Test A postemergence application, visual injury rating 0-100
# Method in brief: (§2)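 Loam-sand pots got test material in surfactant-containing solvent, either as a directed soil spray before emergence or on plants at the one- to two-leaf stage. Visual injury (0-100) was read after ten greenhouse days.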
# [6] = test system: palmer (palmer amaranth, palmer pigweed, Amaranthus palmeri); experiment: as above
# Method in brief: as §2
# [7] = test system: corn (Zea mays); experiment: as above
# Method in brief: as §2
# [8] = test system: kochia (Bassia scoparia); experiment: as above
# Method in brief: as §2
# [9] = test system: oat, wild (wild oat, Avena fatua); experiment: as above
# Method in brief: as §2
# [10] = test system: horseweed (Erigeron canadensis); experiment: as above; conditions: Postemergence, 16 g ai/ha, greenhouse 10 days; 0 no effect, 100 complete control
# Method in brief: as §2
# [11] = test system: green foxtail (Setaria viridis); experiment: as above
# Method in brief: as §2
# [12] = test system: soybean (Glycine max); experiment: as above
# Method in brief: as §2
# [13] = test system: ragweed (common ragweed, Ambrosia artemisiifolia); experiment: as above
# Method in brief: as §2
# [14] = test system: barnyardgrass (Echinochloa crus-galli); experiment: as above
# Method in brief: as §2
# [15] = test system: blackgrass (Alopecurus myosuroides); experiment: as above
# Method in brief: as §2
# [16] = test system: wheat (Triticum aestivum); experiment: as above
# Method in brief: as §2
# [17] = test system: ryegrass, Italian (italian ryegrass, Lolium multiflorum); experiment: Test A preemergence soil spray, visual injury rating 0-100; conditions: 10 days
# Method in brief: as §2
# [18] = test system: palmer (palmer amaranth, palmer pigweed, Amaranthus palmeri); experiment: as above; conditions: 10 days
# Method in brief: as §2
# [19] = test system: corn (Zea mays); experiment: as above; conditions: 10 days
# Method in brief: as §2
# [20] = test system: kochia (Bassia scoparia); experiment: as above; conditions: 10 days
# Method in brief: as §2
# [21] = test system: oat, wild (wild oat, Avena fatua); experiment: as above; conditions: 10 days
# Method in brief: as §2
# [22] = test system: green foxtail (Setaria viridis); experiment: as above; conditions: 10 days
# Method in brief: as §2
# [23] = test system: soybean (Glycine max); experiment: as above; conditions: 10 days
# Method in brief: as §2
# [24] = test system: ragweed (common ragweed, Ambrosia artemisiifolia); experiment: as above; conditions: 10 days
# Method in brief: as §2
# [25] = test system: barnyardgrass (Echinochloa crus-galli); experiment: as above; conditions: 10 days
# Method in brief: as §2
# [26] = test system: blackgrass (Alopecurus myosuroides); experiment: as above; conditions: 10 days
# Method in brief: as §2
# [27] = test system: wheat (Triticum aestivum); experiment: as above; conditions: 10 days
# Method in brief: as §2
# [28] = 62 g ai/ha, postemergence, 10 days, 0 = no effect, 100 = complete control
# [29] = Postemergence, 16 g ai/ha, greenhouse 10 days, 0 no effect, 100 complete control
# [30] = 62 g ai/ha, 0 = no effect, 100 = complete control
smiles,measurement,setting,value
CCOC(=O)C1=CCC(NC(=O)C2(C)CN(c3cc(Cl)cc(Cl)c3)C(=O)O2)C1 (stereo not shown) [Compound 113],"Plant response rating, Barnyardgrass (0 to 100 scale, 0 is no effect and 100 is complete control)",[1],0
same,"Plant response rating, Ducksalad (0 to 100 scale, 0 is no effect and 100 is complete control)",[2],0
same,"Plant response rating, Sedge, Umbrella (0 to 100 scale, 0 is no effect and 100 is complete control)",[3],0
same,"Plant response rating, Rice (0 to 100 scale, 0 is no effect and 100 is complete control)",[4],0
same,"Ryegrass, Italian plant response rating (0-100)",[5]; [28],0
same,"Ryegrass, Italian plant response rating (0 to 100 scale)",[5]; [29],0
same,"Pigweed, Palmer plant response rating (0-100)",[6]; [28],10
same,"Pigweed, Palmer plant response rating (0 to 100 scale)",[6]; [29],0
same,Corn plant response rating (0-100),[7]; [28],20
same,Corn plant response rating (0 to 100 scale),[7]; [29],0
same,Kochia plant response rating (0-100),[8]; [28],0
same,Kochia plant response rating (0 to 100 scale),[8]; [29],0
same,"Oat, Wild plant response rating (0-100)",[9]; [28],0
same,"Oat, Wild plant response rating (0 to 100 scale)",[9]; [29],0
same,Horseweed plant response rating (0 to 100 scale),[10],0
same,"Foxtail, Green plant response rating (0-100)",[11]; [28],20
same,"Foxtail, Green plant response rating (0 to 100 scale)",[11]; [29],0
same,Soybean plant response rating (0-100),[12]; [28],0
same,Soybean plant response rating (0 to 100 scale),[12]; [29],0
same,Ragweed plant response rating (0-100),[13]; [28],30
same,Ragweed plant response rating (0 to 100 scale),[13]; [29],0
same,Barnyardgrass plant response rating (0-100),[14]; [28],10
same,Barnyardgrass plant response rating (0 to 100 scale),[14]; [29],0
same,Blackgrass plant response rating (0-100),[15]; [28],20
same,Blackgrass plant response rating (0 to 100 scale),[15]; [29],0
same,Wheat plant response rating (0-100),[16]; [28],0
same,Wheat plant response rating (0 to 100 scale),[16]; [29],0
same,"Ryegrass, Italian plant response rating","[17]; 16 g ai/ha, 0 to 100 scale",0
same,"Ryegrass, Italian plant response rating (0-100)",[17]; [30],0
same,"Pigweed, Palmer plant response rating","[18]; 16 g ai/ha, 0 to 100 scale",0
same,"Pigweed, Palmer plant response rating (0-100)",[18]; [30],20
same,Corn plant response rating,"[19]; 16 g ai/ha, 0 to 100 scale",0
same,Corn plant response rating (0-100),[19]; [30],0
same,Kochia plant response rating,"[20]; 16 g ai/ha, 0 to 100 scale",0
same,Kochia plant response rating (0-100),[20]; [30],0
same,"Oat, Wild plant response rating","[21]; 16 g ai/ha, 0 to 100 scale",0
same,"Oat, Wild plant response rating (0-100)",[21]; [30],0
same,"Foxtail, Green plant response rating","[22]; 16 g ai/ha, 0 to 100 scale",0
same,"Foxtail, Green plant response rating (0-100)",[22]; [30],0
same,Soybean plant response rating,"[23]; 16 g ai/ha, 0 to 100 scale",0
same,Soybean plant response rating (0-100),[23]; [30],0
same,Ragweed plant response rating,"[24]; 16 g ai/ha, 0 to 100 scale",0
same,Ragweed plant response rating (0-100),[24]; [30],0
same,Barnyardgrass plant response rating,"[25]; 16 g ai/ha, 0 to 100 scale",0
same,Barnyardgrass plant response rating (0-100),[25]; [30],0
same,Blackgrass plant response rating,"[26]; 16 g ai/ha, 0 to 100 scale",0
same,Blackgrass plant response rating (0-100),[26]; [30],0
same,Wheat plant response rating,"[27]; 16 g ai/ha, 0 to 100 scale",0
same,Wheat plant response rating (0-100),[27]; [30],0
